# Reference: PubChem BioAssay AID1259407 (Chemical Carcinogenesis Research Information System (CCRIS), 2018)
# The source made the active and inactive calls. No rule for the calls is given here.
# Tested on: CCRIS mutagenicity, Ames/micronucleus/aberration tests
# Assay: CCRIS mutagenicity studies
# [1] = Test System: AMES SALMONELLA TYPHIMURIUM, Strain/Indicator: TA98, Metabolic Activation: NONE, Method: PREINCUBATION
# [2] = Test System: AMES SALMONELLA TYPHIMURIUM, Strain/Indicator: TA100, Metabolic Activation: NONE, Method: PREINCUBATION
# [3] = Test System: AMES SALMONELLA TYPHIMURIUM, Strain/Indicator: TA1535, Metabolic Activation: HAMSTER, LIVER, S-9, AROCLOR 1254 (10%), Method: PREINCUBATION
# [4] = Test System: AMES SALMONELLA TYPHIMURIUM, Strain/Indicator: TA1535, Metabolic Activation: NONE, Method: PREINCUBATION
# [5] = Test System: AMES SALMONELLA TYPHIMURIUM, Strain/Indicator: TA1535, Metabolic Activation: RAT, LIVER, S-9, AROCLOR 1254 (10%), Method: PREINCUBATION
# [6] = Test System: AMES SALMONELLA TYPHIMURIUM, Strain/Indicator: TA98, Metabolic Activation: NONE, Method: STANDARD PLATE
# [7] = Test System: AMES SALMONELLA TYPHIMURIUM, Strain/Indicator: TA98, Metabolic Activation: RAT, LIVER, S-9, AROCLOR 1254, Method: STANDARD PLATE
# [8] = Test System: AMES SALMONELLA TYPHIMURIUM, Strain/Indicator: TA100, Metabolic Activation: NONE, Method: STANDARD PLATE
# [9] = Test System: AMES SALMONELLA TYPHIMURIUM, Strain/Indicator: TA100, Metabolic Activation: RAT, LIVER, S-9, AROCLOR 1254, Method: STANDARD PLATE
# [10] = Test System: AMES SALMONELLA TYPHIMURIUM, Strain/Indicator: TA1535, Metabolic Activation: HAMSTER, LIVER, S-9, AROCLOR 1254, Method: STANDARD PLATE
# [11] = Test System: AMES SALMONELLA TYPHIMURIUM, Strain/Indicator: TA1535, Metabolic Activation: NONE, Method: STANDARD PLATE
# [12] = Test System: AMES SALMONELLA TYPHIMURIUM, Strain/Indicator: TA1535, Metabolic Activation: RAT, LIVER, S-9, AROCLOR 1254, Method: STANDARD PLATE
# [13] = Test System: AMES SALMONELLA TYPHIMURIUM, Strain/Indicator: TA1537, Metabolic Activation: NONE, Method: STANDARD PLATE
# [14] = Test System: AMES SALMONELLA TYPHIMURIUM, Strain/Indicator: TA1537, Metabolic Activation: RAT, LIVER, S-9, AROCLOR 1254, Method: STANDARD PLATE
# [15] = Test System: AMES SALMONELLA TYPHIMURIUM, Strain/Indicator: TA1538, Metabolic Activation: RAT, LIVER, S-9, AROCLOR 1254, Method: STANDARD PLATE
compound,measurement,setting,value
CCN(CC)C(=O)c1cccc(C)c1,mutagenic call,"End Point: In vitro chromosomal aberrations, Test System: Chinese hamster ovary (CHO-K1) cells, Metabolic Activation: None",inactive; negative
same,mutagenic call,"End Point: In vitro chromosomal aberrations, Test System: Chinese hamster ovary (CHO-K1) cells, Metabolic Activation: Rat, Liver, S-9, Aroclor 1254",inactive; negative
same,mutagenic call,"Test System: AMES SALMONELLA TYPHIMURIUM, Strain/Indicator: TA97, Metabolic Activation: HAMSTER, LIVER, S-9, AROCLOR 1254 (10%), Method: PREINCUBATION",inactive; negative
same,mutagenic call,"Test System: AMES SALMONELLA TYPHIMURIUM, Strain/Indicator: TA97, Metabolic Activation: HAMSTER, LIVER, S-9, AROCLOR 1254 (30%), Method: PREINCUBATION",inactive; negative
same,mutagenic call,"Test System: AMES SALMONELLA TYPHIMURIUM, Strain/Indicator: TA97, Metabolic Activation: NONE, Method: PREINCUBATION",inactive; negative
same,mutagenic call,"Test System: AMES SALMONELLA TYPHIMURIUM, Strain/Indicator: TA97, Metabolic Activation: RAT, LIVER, S-9, AROCLOR 1254 (10%), Method: PREINCUBATION",inactive; negative
same,mutagenic call,"Test System: AMES SALMONELLA TYPHIMURIUM, Strain/Indicator: TA97, Metabolic Activation: RAT, LIVER, S-9, AROCLOR 1254 (30%), Method: PREINCUBATION",inactive; negative
same,mutagenic call,"Test System: AMES SALMONELLA TYPHIMURIUM, Strain/Indicator: TA98, Metabolic Activation: HAMSTER, LIVER, S-9, AROCLOR 1254 (10 OR 30%), Method: PREINCUBATION",inactive; negative
same,mutagenic call,[1],inactive; negative
same,mutagenic call,"Test System: AMES SALMONELLA TYPHIMURIUM, Strain/Indicator: TA98, Metabolic Activation: RAT, LIVER, S-9, AROCLOR 1254 (10 OR 30%), Method: PREINCUBATION",inactive; negative
same,mutagenic call,"Test System: AMES SALMONELLA TYPHIMURIUM, Strain/Indicator: TA100, Metabolic Activation: HAMSTER, LIVER, S-9, AROCLOR 1254 (10 OR 30%), Method: PREINCUBATION",inactive; negative
same,mutagenic call,[2],inactive; negative
same,mutagenic call,"Test System: AMES SALMONELLA TYPHIMURIUM, Strain/Indicator: TA100, Metabolic Activation: RAT, LIVER, S-9, AROCLOR 1254 (10 OR 30%), Method: PREINCUBATION",inactive; negative
same,mutagenic call,[3],inactive; negative
same,mutagenic call,"Test System: AMES SALMONELLA TYPHIMURIUM, Strain/Indicator: TA1535, Metabolic Activation: HAMSTER, LIVER, S-9, AROCLOR 1254 (30%), Method: PREINCUBATION",inactive; negative
same,mutagenic call,[4],inactive; negative
same,mutagenic call,[5],inactive; negative
same,mutagenic call,"Test System: AMES SALMONELLA TYPHIMURIUM, Strain/Indicator: TA1535, Metabolic Activation: RAT, LIVER, S-9, AROCLOR 1254 (30%), Method: PREINCUBATION",inactive; negative
CC(O)CCC(=O)c1ccoc1 (centres undefined),mutagenic call,"Test System: AMES SALMONELLA TYPHIMURIUM, Strain/Indicator: TA98, Metabolic Activation: HAMSTER, LIVER, S-9, AROCLOR 1254, Method: STANDARD PLATE",inactive; negative
same,mutagenic call,[6],inactive; negative
same,mutagenic call,[7],inactive; negative
same,mutagenic call,"Test System: AMES SALMONELLA TYPHIMURIUM, Strain/Indicator: TA100, Metabolic Activation: HAMSTER, LIVER, S-9, AROCLOR 1254, Method: STANDARD PLATE",inactive; negative
same,mutagenic call,[8],inactive; negative
same,mutagenic call,[9],inactive; negative
same,mutagenic call,[10],inactive; negative
same,mutagenic call,[11],inactive; negative
same,mutagenic call,[12],inactive; negative
same,mutagenic call,"Test System: AMES SALMONELLA TYPHIMURIUM, Strain/Indicator: TA1537, Metabolic Activation: HAMSTER, LIVER, S-9, AROCLOR 1254, Method: STANDARD PLATE",inactive; negative
same,mutagenic call,[13],inactive; negative
same,mutagenic call,[14],inactive; negative
same,mutagenic call,"Test System: AMES SALMONELLA TYPHIMURIUM, Strain/Indicator: TA1538, Metabolic Activation: HAMSTER, LIVER, S-9, AROCLOR 1254, Method: STANDARD PLATE",inactive; negative
same,mutagenic call,"Test System: AMES SALMONELLA TYPHIMURIUM, Strain/Indicator: TA1538, Metabolic Activation: NONE, Method: STANDARD PLATE",inactive; negative
same,mutagenic call,[15],inactive; negative
CN(Cc1cccc(Cl)c1)N=O,mutagenic call,[10],active; positive
same,mutagenic call,[11],inactive; negative
CN(C)N=Nc1ccccc1,mutagenic call,"Test System: AMES SALMONELLA TYPHIMURIUM, Strain/Indicator: G46, Metabolic Activation: NONE, Method: STANDARD PLATE",active; positive
same,mutagenic call,"Test System: AMES SALMONELLA TYPHIMURIUM, Strain/Indicator: G46, Metabolic Activation: RAT, LIVER, S-9, PHENOBARBITAL, Method: STANDARD PLATE",active; positive
COc1cc(NC(C)=O)ccc1NC(C)=O,mutagenic call,[6],inactive; negative
same,mutagenic call,[7],inactive; negative
COc1cc(O)ccc1Nc1c2ccccc2nc2ccccc12,mutagenic call,[13],active; positive
Cc1ccc(S(=O)(=O)Oc2ccc(N=Nc3ccc(-c4ccc(N=Nc5c(O)ccc6cc(S(=O)(=O)O)cc(S(=O)(=O)O)c56)c(C)c4)cc3C)cc2)cc1,mutagenic call,"Test System: AMES SALMONELLA TYPHIMURIUM, Strain/Indicator: TA98, Metabolic Activation: HAMSTER, LIVER, S-9, AROCLOR 1254 (10%), Method: PREINCUBATION",active; positive
same,mutagenic call,"Test System: AMES SALMONELLA TYPHIMURIUM, Strain/Indicator: TA98, Metabolic Activation: HAMSTER, LIVER, S-9, Method: PREINCUBATION (PRIVAL METHOD)",active; positive
same,mutagenic call,[1],inactive; negative
same,mutagenic call,"Test System: AMES SALMONELLA TYPHIMURIUM, Strain/Indicator: TA98, Metabolic Activation: RAT, LIVER, S-9, AROCLOR 1254 (10%), Method: PREINCUBATION",inactive; negative
same,mutagenic call,"Test System: AMES SALMONELLA TYPHIMURIUM, Strain/Indicator: TA100, Metabolic Activation: HAMSTER, LIVER, S-9, AROCLOR 1254 (10%), Method: PREINCUBATION",inactive; negative
same,mutagenic call,[2],inactive; negative
same,mutagenic call,"Test System: AMES SALMONELLA TYPHIMURIUM, Strain/Indicator: TA100, Metabolic Activation: RAT, LIVER, S-9, AROCLOR 1254 (10%), Method: PREINCUBATION",inactive; negative
same,mutagenic call,[3],inactive; negative
same,mutagenic call,[4],inactive; negative
same,mutagenic call,[5],inactive; negative
same,mutagenic call,"Test System: AMES SALMONELLA TYPHIMURIUM, Strain/Indicator: TA1537, Metabolic Activation: HAMSTER, LIVER, S-9, AROCLOR 1254 (10%), Method: PREINCUBATION",inactive; negative
same,mutagenic call,"Test System: AMES SALMONELLA TYPHIMURIUM, Strain/Indicator: TA1537, Metabolic Activation: NONE, Method: PREINCUBATION",inactive; negative
same,mutagenic call,"Test System: AMES SALMONELLA TYPHIMURIUM, Strain/Indicator: TA1537, Metabolic Activation: RAT, LIVER, S-9, AROCLOR 1254 (10%), Method: PREINCUBATION",inactive; negative
same,mutagenic call,[15],active; positive
CC(C)CCC[C@@H](C)[C@H]1CC[C@H]2[C@@H]3C[C@H]4O[C@]45C[C@@H](O)CC[C@]5(C)[C@H]3CC[C@]12C,mutagenic call,"Test System: CHINESE HAMSTER V-79, Strain/Indicator: V-79/6-THIOGUANINE, Metabolic Activation: NONE",active; positive
same,mutagenic call,"Test System: CHINESE HAMSTER V-79, Strain/Indicator: V-79/OUABAIN, Metabolic Activation: NONE",inactive; negative
O=[N+]([O-])O[C@H]1CO[C@H]2[C@@H]1OC[C@H]2O[N+](=O)[O-],mutagenic call,[6],inactive; negative
same,mutagenic call,[7],inactive; negative
same,mutagenic call,[8],inactive; negative
same,mutagenic call,[9],inactive; negative
same,mutagenic call,[11],inactive; negative
same,mutagenic call,[12],inactive; negative
same,mutagenic call,[13],inactive; negative
same,mutagenic call,[14],inactive; negative
